Results reported in patent publication US4849429A, “Certain 1,4-dihydro-2,6-dilower-alkyl-4-(mono-substituted pyridyl) useful for treating coronary artery or cerebral artery disease” (The Green Cross Corporation, priority 1985, dated 1989).
Read-outs that look alike come from different tables or passages of the source.

Assay: Test 2: blood pressure depression up to 24 hours and duration until 50% recovery, oral
Type: in vivo, Male, spontaneously hypertension-developing rats
Conditions: for response vs control in vivo at 25 mg/kg: Rattus norvegicus, percent based on that before administration (100); for Duration 50% recovery: duration until pressure recovered to 50% from the maximum depression value
Description: Male, spontaneously hypertension-developing rats of ages of 10 to 11 weeks (in groups of 3 to 5 animals) were used in the test. For blood pressure determination, systolic pressure was measured without anesthesia by an indirect tail-cuff method using a sphygmomanometer (PE-300, Narco Bio-System).

[1] = 1h after oral administration, read-out: Depression value (%) of blood pressure, 1h
[2] = 2h after oral administration, read-out: Depression value (%) of blood pressure, 2h
[3] = 4h after oral administration, read-out: Depression value (%) of blood pressure, 4h
[4] = 7h after oral administration, read-out: Depression value (%) of blood pressure, 7h
[5] = 24h after oral administration, read-out: Depression value (%) of blood pressure, 24h
[6] = maximum lowering, read-out: Depression value (%) of blood pressure, Max

Row | Structure (SMILES) | response vs control in vivo at 25 mg/kg [1] | response vs control in vivo at 25 mg/kg [2] | response vs control in vivo at 25 mg/kg [3] | response vs control in vivo at 25 mg/kg [4] | response vs control in vivo at 25 mg/kg [5] | response vs control in vivo at 25 mg/kg [6] | Duration 50% recovery
1 | COC(=O)C1=C(C)NC(C)=C(C(=O)OCCN(C)Cc2ccccc2)C1c1ncccc1[N+](=O)[O-] (stereo not drawn) [(1), 2,6-Dimethyl-4-(3-nitro-2-pyridyl)-1,4-dihydropyridine-3,5-dicarboxylicacid 3-β-(N-benzyl-N-methylamino)ethyl ester 5-methyl ester] | 65% | 68% | 76% | 81% | 96% | 65% | 8.7 h
2 | COC(=O)C1=C(C)NC(C)=C(C(=O)OCCN(C)Cc2ccccc2)C1c1cc(Br)ccn1 (stereo not drawn) [(2), 2,6-Dimethyl-4-(4-bromo-2-pyridyl)-1,4-dihydropyridine-3,5-dicarboxylicacid 3-β-(N-benzyl-N-methylamino)ethyl ester 5-methyl ester] | 70% | 76% | 75% | 92% | 102% | 70% | 5.8 h
3 | COC(=O)C1=C(C)NC(C)=C(C(=O)OCCN(C)Cc2ccccc2)C1c1cc(C#N)ccn1 (stereo not drawn) [(3), 2,6-Dimethyl-4-(4-cyano-2-pyridyl)-1,4-dihydropyridyne-3,5-dicarboxylicacid 3-β-(N-benzyl-N-methylamino)ethyl ester 5-methyl ester] | 61% | 66% | 74% | 82% | 95% | 61% | 7.0 h
4 | COC(=O)C1=C(C)NC(C)=C(C(=O)OCCN(C)Cc2ccccc2)C1c1cccc(Cl)n1 (stereo not drawn) [(7), 2,6-Dimethyl-4-(6-chloro-2-pyridyl)-1,4-dihydropyridine-3,5-dicarboxylic a cid 3-β-(N-benzyl-N-methylamino)ethyl ester 5-methyl ester] | 83% | 84% | 87% | 93% | 101% | 83% | 6.0 h
5 | COC(=O)C1=C(C)NC(C)=C(C(=O)OCCN(C)Cc2ccccc2)C1c1cccc(C(F)(F)F)n1 (stereo not drawn) [(9), 2,6-Dimethyl-4-(6-trifluoromethyl-2-pyridyl)-1,4-dihydropyridine-3,5-dicarboxylic acid 3-β-(N-benzyl-N-methylamino)ethyl ester 5-methyl ester] | 85% | 92% | 91% | 104% | 119% | 85% | 4.6 h
6 | COC(=O)C1=C(C)NC(C)=C(C(=O)OCCN(C)Cc2ccccc2)C1c1cccc([N+](=O)[O-])n1 (stereo not drawn) [(10), 2,6-Dimethyl-4-(6-nitro-2-pyridyl)-1,4-dihydropyridine-3,5-dicarboxylic ac id 3-β-(N-benzyl-N-methylamino)ethyl ester 5-methyl ester] | 99% | 95% | 107% | 110% | 120% | 95% | 2.4 h
7 | COC(=O)C1=C(C)NC(C)=C(C(=O)OCCN(C)Cc2ccccc2)C1c1cccnc1Br (stereo not shown) [(11)] | 83% | 82% | 87% | 91% | 97% | 82% | 6.7 h
8 | COC(=O)C1=C(C)NC(C)=C(C(=O)OCCN(C)Cc2ccccc2)C1c1cccnc1C#N (stereo not drawn) [(12), 2,6-Dimethyl-4-(2-cyano-3-pyridyl)-1,4-dihydropyridine-3,5-dicarboxylic ac id 3-β-(N-benzyl-N-methylamino)ethyl ester 5-methyl ester] | 66% | 71% | 76% | 88% | 98% | 66% | 5.6 h
9 | COC(=O)C1=C(C)NC(C)=C(C(=O)OCCN(C)Cc2ccccc2)C1c1cccnc1C(F)(F)F (stereo not drawn) [(13), 2,6-Dimethyl-4-(2-trifluoromethyl-3-pyridyl)-1,4-dihydropyridine-3,5-dicarboxylic acid 3-β-(benzyl-N-methylamino)ethyl ester 5-methyl ester] | 73% | 67% | 67% | 71% | 94% | 67% | 16.2 h
10 | COC(=O)C1=C(C)NC(C)=C(C(=O)OCCN(C)Cc2ccccc2)C1c1cncc(Br)c1 (stereo not drawn) [(14), 2,6-Dimethyl-4-(5-bromo-3-pyridyl)-1,4-dihydropyridine-3,5-dicarboxylic ac id 3-β-(N-benzyl-N-methylamino)ethyl ester 5-methyl ester] | 83% | 91% | 90% | 90% | 101% | 83% | 9.3 h
11 | COC(=O)C1=C(C)NC(C)=C(C(=O)OCCN(C)Cc2ccccc2)C1c1ccc(C#N)nc1 (stereo not drawn) [(15), 2,6-Dimethyl-4-(6-cyano-3-pyridyl)-1,4-dihydropyridine-3,5-dicarboxylic ac id 3-β-(N-benzyl-N-methylamino)ethyl ester 5-methyl ester] | 88% | 90% | 83% | 89% | 95% | 83% | 15.1 h
12 | COC(=O)C1=C(C)NC(C)=C(C(=O)OCCN(C)Cc2ccccc2)C1c1ccnc(F)c1 (stereo not drawn) [(16), 2,6-Dimethyl-4-(2-fluoro-4-pyridyl)-1,4-dihydropyridine-3,5-dicarboxylic acid 3-β-(N-benzyl-N-methylamino)ethyl ester 5-methyl ester] | 92% | 94% | 95% | 98% | 96% | 92% | 5.5 h
13 | COC(=O)C1=C(C)NC(C)=C(C(=O)OCCN(C)Cc2ccccc2)C1c1cncc(C(F)(F)F)c1 (stereo not drawn) [(17), 2,6-Dimethyl-4-(5-trifluoromethyl-3-pyridyl)-1,4-dihydropyridine-3,5-dicarboxylic acid 3-β-(N-benzyl-N-methylamino)ethyl ester 5-methyl ester] | 91% | 92% | 95% | 98% | 105% | 91% | 4.2 h
14 | COC(=O)C1=C(C)NC(C)=C(C(=O)OCCN(C)Cc2ccccc2)C1c1cncc([N+](=O)[O-])c1 (stereo not drawn) [(18), 2,6-Dimethyl-4-(5-nitro-3-pyridyl)-1,4-dihydropyridine-3,5-dicarboxylic ac id 3-β-(N-benzyl-N-methylamino)ethyl ester 5-methyl ester] | 90% | 86% | 95% | 96% | 96% | 86% | 3.7 h
15 | COC(=O)C1=C(C)NC(C)=C(C(=O)OCCN(C)Cc2ccccc2)C1c1ccnc(C#N)c1 (stereo not drawn) [(19), 2,6-Dimethyl-4-(2-cyano-4-pyridyl)-1,4-dihydropyridine-3,5-dicarboxylic ac id 3-β-(N-benzyl-N-methylamino)ethyl ester 5-methyl ester] | 75% | 94% | 100% | 98% | 99% | 75% | 1.7 h
16 | COC(=O)C1=C(C)NC(C)=C(C(=O)OCCN(C)Cc2ccccc2)C1c1cccc([N+](=O)[O-])c1 (stereo not drawn) [Nic, 2,6-dimethyl-4-(3-nitrophenyl)-1,4-dihydropyridine-3,5-dicarboxylic acid 3-β-(N-benzyl-N-methylamino)ethyl ester 5-methyl ester, reference compound] | 62% | 68% | 76% | 81% | 96% | 62% | 7.0 h
